Publication PMC3190643 (Journal of medicinal chemistry, 2011)
Structures can show the parent of a compound that is named as a salt. Where two headings read alike, the source gives them in different places.

Key:
[1] = cited from earlier work
[2] = Metabolic stability in mouse liver microsomes; assay type: in vitro ADME; settings: calculated from in vitro half-life; for CLint scaled at 100 μM: mouse, microsomes, pH 7.4, CLint,app
[3] = Metabolic stability in rat liver microsomes; assay type: in vitro ADME; settings: pH 7.4
[4] = Metabolic stability in human liver microsomes; assay type: in vitro ADME; settings: pH 7.4
[5] = for plasma concentration: IV dose of 3, mice, normalized to 8.13 mg/kg
[6] = in vivo; settings: male, C57Bl/6J, mouse, iv
[7] = system: Salmonella typhimurium Ames II mixed strains (TA7001 to TA7006) and tester strain TA98; test: Ames II mutagenicity assay; settings: with and without rat S9 activation, up to 1 mg/mL
[8] = target: T1, Human recombinant active MMP-2 (Homo sapiens, UniProt P08253); settings: slow-binding
T1 sequence (P08253 110-660): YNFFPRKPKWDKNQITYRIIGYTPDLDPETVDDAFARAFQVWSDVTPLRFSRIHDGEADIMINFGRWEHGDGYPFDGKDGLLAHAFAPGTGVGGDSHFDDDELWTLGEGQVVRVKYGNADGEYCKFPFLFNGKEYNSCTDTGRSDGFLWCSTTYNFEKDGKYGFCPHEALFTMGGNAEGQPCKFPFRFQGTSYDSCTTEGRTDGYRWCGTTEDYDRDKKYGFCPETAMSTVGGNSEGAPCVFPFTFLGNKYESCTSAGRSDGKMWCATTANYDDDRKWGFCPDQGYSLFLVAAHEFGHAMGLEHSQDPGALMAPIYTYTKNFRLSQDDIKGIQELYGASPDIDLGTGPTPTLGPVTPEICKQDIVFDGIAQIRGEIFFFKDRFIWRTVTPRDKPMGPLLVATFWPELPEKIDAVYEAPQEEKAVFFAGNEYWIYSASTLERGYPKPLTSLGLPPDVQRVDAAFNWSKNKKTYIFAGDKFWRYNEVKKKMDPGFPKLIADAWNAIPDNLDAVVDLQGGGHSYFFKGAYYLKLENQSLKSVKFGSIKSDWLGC

[9] = target: catalytic domain of human recombinant MMP-9 (Homo sapiens, UniProt P14780); settings: slow-binding
[10] = target: catalytic domain of MMP-14 (Homo sapiens, UniProt P50281); settings: slow-binding
[11] = humans; cited from earlier work
[12] = t½ α (distribution half life), IV dose of 5d […], mice
[13] = t½ β (terminal half life), IV dose of 5d […], mice

catalytic domain of human recombinant MMP-9, sequence (P14780 107-444 limits assumed): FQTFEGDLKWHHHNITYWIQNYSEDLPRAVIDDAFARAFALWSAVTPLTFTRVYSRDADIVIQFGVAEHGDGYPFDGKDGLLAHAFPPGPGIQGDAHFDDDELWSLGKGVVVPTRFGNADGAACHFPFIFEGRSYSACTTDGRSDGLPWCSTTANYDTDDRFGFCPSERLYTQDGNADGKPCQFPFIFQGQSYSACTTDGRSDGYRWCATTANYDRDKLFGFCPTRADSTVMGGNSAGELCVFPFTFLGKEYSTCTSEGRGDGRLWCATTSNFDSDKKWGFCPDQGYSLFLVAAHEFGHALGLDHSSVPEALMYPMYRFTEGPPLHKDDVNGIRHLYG

O=S(=O)(CC1CS1)c1ccc(Oc2ccccc2)cc1 (stereo not drawn) [Compound 1, (4-phenoxyphenylsulfonyl)methylthiirane]
intrinsic clearance in the rat [1]: 117 mL/min/kg | t½ in rat liver microsomes [1]: 12.0 min

Nc1ccc(Oc2ccc(S(=O)(=O)CC3CS3)cc2)cc1 (stereo not drawn) [Compound 3, 4-[4-((Thiiran-2-yl)methylsulfonyl)phenoxy]benazamine · HCl salt]
CLint,app [2]: 102.8 ± 7.9 mL/min/kg | CLint scaled at 100 μM [2]: 103 mL/min/kg | CLint scaled at 100 μM [3]: 60 ± 1.8 mL/min/kg | CLint scaled at 100 μM [4]: < 10 mL/min/kg | time plasma levels were higher than the Ki for MMP-9 ([5]; male, C57Bl/6J, mouse, in vivo): 20 min | Vd [6]: 0.0125 L | clearance [6]: 87.5 mL/min/kg | half-life [6, 12]: 2.9 min | half-life [6, 13]: 69 min | Ames II mutagenicity response [7]: negative (non-mutagenic)

NCC(=O)Nc1ccc(Oc2ccc(S(=O)(=O)CC3CS3)cc2)cc1 (stereo not drawn) [Compound 5a]
10^4koff, MMP-2 [8]: 8.2 ± 0.9 s^−1 | 10^−3kon, MMP-2 [8]: 1.9 ± 0.6 M^−1s^−1 | 10^4koff, MMP-9 catalytic domain [9]: 6.5 ± 0.6 s^−1 | 10^−3kon, MMP-9 catalytic domain [9]: 0.21 ± 0.04 M^−1s^−1

NCCCC[C@H](N)C(=O)Nc1ccc(Oc2ccc(S(=O)(=O)CC3CS3)cc2)cc1 (stereo partly drawn) [Compound 5b]
10^4koff, MMP-2 [8]: 2.1 ± 0.9 s^−1 | 10^−3kon, MMP-2 [8]: 3.4 ± 0.1 M^−1s^−1 | 10^4koff, MMP-9 catalytic domain [9]: 4.2 ± 0.7 s^−1 | 10^−3kon, MMP-9 catalytic domain [9]: 0.27 ± 0.04 M^−1s^−1

N[C@@H](CCC(=O)O)C(=O)Nc1ccc(Oc2ccc(S(=O)(=O)CC3CS3)cc2)cc1 (stereo partly drawn) [Compound 5c]
10^4koff, MMP-2 [8]: 1.8 ± 1.6 s^−1 | 10^−3kon, MMP-2 [8]: 2.5 ± 0.1 M^−1s^−1 | 10^4koff, MMP-9 catalytic domain [9]: 12.0 ± 0.7 s^−1 | 10^−3kon, MMP-9 catalytic domain [9]: 0.28 ± 0.02 M^−1s^−1

N=C(N)NCCC[C@H](N)C(=O)Nc1ccc(Oc2ccc(S(=O)(=O)CC3CS3)cc2)cc1 (stereo partly drawn) [Compound 5d]
CLint scaled at 100 μM [2]: < 47 mL/min/kg | CLint scaled at 100 μM [3]: 23.7 ± 1.8 mL/min/kg | half-life at 100 μM [3]: ≥ 60 min | CLint scaled at 100 μM [4]: < 10 mL/min/kg | Vd [6]: 0.0978 L/kg | clearance [6]: 58.2 mL/min/kg | half-life ([6]; elimination (terminal) half life t½ β, IV dose of 5d […], mice): > 240 min | half-life [6, 12]: < 1 min | half-life [6, 13]: 260 min | Ames II mutagenicity response [7]: negative (non-mutagenic)

Nc1ccc(Oc2ccc(S(=O)(=O)CC3CS3)cc2)cc1O (stereo not drawn) [Compound 13, 2-Amino-5-(4-((thiiran-2-ylmethyl)sulfonyl)phenoxy)phenol]
10^4koff, MMP-2 [8]: 1.4 ± 0.7 s^−1 | 10^−3kon, MMP-2 [8]: 1.7 ± 0.1 M^−1s^−1 | 10^4koff, MMP-9 catalytic domain [9]: 5.3 ± 1.0 s^−1 | 10^−3kon, MMP-9 catalytic domain [9]: 1.1 ± 0.1 M^−1s^−1 | 10^4koff, MMP-14 catalytic domain [10]: 7.0 ± 1.6 s^−1 | 10^−3kon, MMP-14 catalytic domain [10]: 2.7 ± 0.3 M^−1 s^−1

CC(=O)Nc1ccc(Oc2ccc(S(=O)(=O)CC3CS3)cc2)cc1 (stereo not drawn) [Compound M3]
plasma concentration ([5]; 2-3 min): 197 ± 61.6 nM | plasma concentration ([5]; 4-5 min): 462 ± 313 nM | plasma concentration ([5]; 7-8 min): 192 ± 12.1 nM | plasma concentration ([5]; 11-12 min): 150 ± 27.2 nM | plasma concentration ([5]; 62-66 min): 27.3 ± 6.28 nM | half-life [6, 12]: 12 min | half-life ([6]; t½ α, IV dose of 3, mice): 5.1 min

CC(C)c1cccc(C(C)C)c1O [propofol]
Vd [11]: 12.4 L/kg
